Patent publication US20250195491A1 (AEVIS BIO, INC., priority 2022, published 2025)

What was measured:
Aiolos and Ikaros = Aiolos and Ikaros degradation by immunoblotting in MM.1S cells; type: cell-based, human; conditions: immunoblot
Method: To this end, the MM.1S cell line was cultured in an RPMI medium (Corning, MD, USA) supplemented with 10% fetal bovine serum (Corning, MD, USA), 100 U/mL of penicillin (Corning, MD, USA), and 100 μg/mL of streptomycin (Corning, MD, USA) at 37° C. in a 5% CO2 incubator. […] The cells were disrupted by adding a RIPA buffer containing a protease inhibitor cocktail (Thermo Fisher Scientific) and centrifuged at 14,000 rpm for 15 minutes at 4° C. to obtain a cell extract. Equal amounts of the cell extract were loaded, and proteins were separated through SDS-PAGE and then transferred to a PVDF membrane. The protein-transferred membrane was blocked using skim milk, incubated with a primary antibody for 3 hours at room temperature, and then incubated with an HRP-conjugated secondary antibody for 1 hour at room temperature. The resulting product was washed with TBS-T three times between steps. Detection was performed using a chemoluminescence reagent (Thermo Fisher Scientific), and confirmed using Chemidoc (iBright CL1500, Invitrogen, CA, USA). Aiolos (#15103), Ikaros (#9034) and GAPDH (#2118S) antibodies used as primary antibodies and a secondary antibody were purchased from Cell Signaling Technology (Danvers, MA, USA).
Additionally, the expression of Aiolos and Ikaros, mediated by 3-MP, was confirmed over time. […]

iNOS and COX-2 = iNOS and COX-2 immunoblotting in LPS-stimulated BV-2 cells; type: cell-based, mouse; conditions: BV-2, 30, 10, or 3.33 μM, LPS 1 μg/mL 24 hours, FIG. 6C
Method: To further confirm the oxidative stress suppression effect, the content of nitrite released due to an inflammatory response and the expression levels of iNOS, which is an enzyme that produces nitric oxide, and COX-2, which is cyclooxygenase-2, were determined in mouse microglial cells (BV-2, ATCC, Manassas, VA, USA).
To determine the content of nitrite and the protein expression levels of iNOS and COX-2, BV-2 was seeded in a 12-well plate (Corning, MD, USA) at 1.5×10^5 cells/well, and cultured using a DMEM medium (Corning, MD, USA) containing 10% fetal bovine serum (Corning, MD, USA) and 100 U/mL of penicillin/streptomycin (Corning, MD, USA) at 37° C. in a 5% CO2 incubator for one day for stabilization. […] 1 μg/mL of LPS (Sigma, USA) was added to all experimental groups excluding the non-inflammation-induced group and allowed to react at 37° C. in a 5% CO2 incubator for 24 hours.
The cells from which the cell culture medium was removed were disrupted by adding a RIPA buffer containing a protease inhibitor cocktail (Thermo Fisher Scientific), and centrifuged at 14,000 rpm for 15 minutes at 4° C. to obtain a cell extract. Equal amounts of the cell extract were loaded, and proteins were separated through SDS-PAGE and then transferred to a PVDF membrane. […]

[1] = Stability in human plasma (UPLC-MS quantification); type: in vitro ADME; conditions: FIG. 7B
Method: To plot a standard calibration curve, the stock sample was diluted by half with acetonitrile from 125 to 0.39 μg/mL to prepare standard solutions for a total of 10 samples at different concentrations, and the calibration curve was plotted as shown in FIG. 7A.
For the experiment of verifying stability in plasma, 10 μL of the test drug prepared at a concentration of 100 μg/mL was added to 90 μL of human plasma and mixed for 30 seconds, and then immediately after the addition, the plasma-mixed test drug was incubated for 15, 30, 60, or 120 minutes to prepare samples. Afterward, 400 μL of 100% ethyl acetate was added to each sample and extracted using a vortex mixture for 1 minute. […] Initially, the mobile phase B was increased from 5% to 95% until 9 minutes and analyzed, the mobile phase B was maintained 95% until 12 minutes, and then the mobile phase B was lowered to 5% and equilibrated, and used in the subsequent analysis. the flow rate of the mobile phase was 0.3 mL/min, the sample injection volume was 2 μL, and the mass spectrometer was operated in the ESI-positive mode. The spray voltage was set to 3.5 kV, and the flow rates of the nitrogen sheath gas, auxiliary gas, and sweep gas were analyzed as 50, 10, and 1 (arbitrary units), respectively. […]

plasma level immediately after plasma addition ([1]; 0 minutes): 80 µg/mL
SMILES: Nc1cccc2c1C(=S)N(C1CCC(=O)NC1=O)C2=O (centres unmarked) [3-MP, 3-thiopomalidomide]
expression of Aiolos and Ikaros over time (Aiolos and Ikaros; 10 μM, 1, 4, 8, 12, or 24 hours, FIG. 3B): does not reduce the expression of Aiolos and Ikaros | expression of Aiolos and Ikaros, by concentration (Aiolos and Ikaros; 0.000128-10 μM, 4 hours, FIG. 3A): does not reduce the expression of Aiolos and Ikaros | expression of oxidative stress-associated proteins (iNOS and COX-2) (iNOS and COX-2): effectively reduced | stability in human plasma over time ([1]; 0 to 120 minutes): maintained without significant changes in plasma from 0 to 120 minutes
